In ChEMBL document CHEMBL1157661 (Bioorg Med Chem, 2010):
In brackets after ≈: the same amount, converted by molar mass.

Key:
[1] = biological target: Adenosine receptor A2a (Homo sapiens) (UniProt P29274); assay: Displacement of [3H]ZM241385 from human recombinant adenosine A2A receptor expressed in human HeLa cell membrane at 10 uM; format: cell membranes
[2] = biological target: T1, Adenosine receptor A3 (Homo sapiens) (UniProt P0DMS8); assay: Displacement of [3H]NECA from human recombinant adenosine A3 receptor expressed in human HeLa cell membrane at 10 uM; format: cell membranes
T1 sequence (whole entry): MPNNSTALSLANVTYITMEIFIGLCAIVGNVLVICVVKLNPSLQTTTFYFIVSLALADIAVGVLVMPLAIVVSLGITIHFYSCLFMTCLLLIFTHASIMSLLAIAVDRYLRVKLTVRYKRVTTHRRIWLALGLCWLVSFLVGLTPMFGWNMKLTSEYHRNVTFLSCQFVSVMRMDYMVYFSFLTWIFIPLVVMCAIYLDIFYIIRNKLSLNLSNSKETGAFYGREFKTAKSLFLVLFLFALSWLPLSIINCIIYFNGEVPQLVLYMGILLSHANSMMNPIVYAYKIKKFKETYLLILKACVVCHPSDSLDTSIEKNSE

[3] = biological target: T2, Adenosine receptor A1 (Homo sapiens) (UniProt P30542); assay: Displacement of [3H]DPCPX from human recombinant adenosine A1 receptor expressed in CHO-A1 cell membrane at 10 uM; format: cell membranes
T2 sequence (whole entry): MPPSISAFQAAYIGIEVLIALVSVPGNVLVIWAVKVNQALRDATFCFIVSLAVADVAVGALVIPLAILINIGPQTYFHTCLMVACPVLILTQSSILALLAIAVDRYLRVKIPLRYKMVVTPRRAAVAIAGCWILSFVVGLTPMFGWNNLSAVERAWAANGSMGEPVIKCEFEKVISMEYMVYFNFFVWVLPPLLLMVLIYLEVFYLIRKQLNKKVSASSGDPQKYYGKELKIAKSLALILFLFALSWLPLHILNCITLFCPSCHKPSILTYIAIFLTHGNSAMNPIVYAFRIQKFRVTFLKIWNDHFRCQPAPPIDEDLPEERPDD

[4] = biological target: T3, Adenosine receptor A2b (Homo sapiens) (UniProt P29275); assay: Displacement of [3H]DPCPX from human recombinant adenosine A2B receptor expressed in HEK293 cell membrane at 10 uM; format: cell membranes
T3 sequence (whole entry): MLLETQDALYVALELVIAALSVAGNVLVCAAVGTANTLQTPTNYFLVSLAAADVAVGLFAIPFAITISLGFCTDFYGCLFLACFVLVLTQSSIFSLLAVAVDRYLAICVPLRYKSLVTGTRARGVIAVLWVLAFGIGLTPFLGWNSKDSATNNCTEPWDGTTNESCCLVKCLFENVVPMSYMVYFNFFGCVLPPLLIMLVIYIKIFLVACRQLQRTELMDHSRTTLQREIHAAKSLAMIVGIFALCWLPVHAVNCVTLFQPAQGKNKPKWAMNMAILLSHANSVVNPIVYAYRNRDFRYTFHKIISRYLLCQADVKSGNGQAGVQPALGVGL

[5] = biological target: T4, Adenosine receptor A1 (Homo sapiens, UniProt P30542); assay: Displacement of [3H]DPCPX from human recombinant adenosine A1 receptor expressed in CHO-A1 cell membrane; format: cell membranes
T4 sequence (P30542 whole entry): T2 sequence (whole entry)

[6] = Solubility in di(ethylene glycol); format: physicochemical
[7] = Solubility in water; format: physicochemical
[8] = Solubility in glycerin; format: physicochemical

Adenosine receptor A2a (Homo sapiens), sequence (P29274 whole entry): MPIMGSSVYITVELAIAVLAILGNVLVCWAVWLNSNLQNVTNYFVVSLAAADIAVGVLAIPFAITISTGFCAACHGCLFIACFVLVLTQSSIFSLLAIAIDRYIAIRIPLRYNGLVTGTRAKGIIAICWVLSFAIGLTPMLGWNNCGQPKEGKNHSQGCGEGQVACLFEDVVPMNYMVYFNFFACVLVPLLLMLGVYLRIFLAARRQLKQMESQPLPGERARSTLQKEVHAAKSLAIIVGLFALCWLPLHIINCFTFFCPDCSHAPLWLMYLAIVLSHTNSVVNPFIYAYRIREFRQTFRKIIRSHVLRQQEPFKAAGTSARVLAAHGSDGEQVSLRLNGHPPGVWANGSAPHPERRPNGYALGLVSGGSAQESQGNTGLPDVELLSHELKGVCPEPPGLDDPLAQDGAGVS

Row | inhibition [1] [%] | inhibition [2] [%] | inhibition [3] [%] | inhibition [4] [%] | Ki [5] [µM] | solubility [6] [mM] | solubility [7] [mM] | solubility [8] | SMILES
1 | 18 | 19 | 53 | 47 | 5 |  |  |  | C=CCCCCCCCCCOCCOCCOCCOCCn1cnc2c1c(=O)n(C)c(=O)n2C
2 | 17 | 2 | 24 | 3 |  |  |  |  | Cn1c(=O)c2c(ncn2CCOCCOCCOCCN=[N+]=[N-])n(C)c1=O
3 | 20 | 1 | 37 | 10 |  | 10 (≈ 3120 µg/mL) | 14 (≈ 4370 µg/mL) | Insoluble | COCCOCCOCc1nc2c([nH]1)c(=O)n(C)c(=O)n2C
